Reference: the supplement of paper PMC13380429

Key:
Settings in all cases: 72 h
HepG2 [1] = assay: relative viability EC50 (midpoint between 100% and the lowest measured viability); higher = less toxic
Calu-3 [2] = assay: as above
Caco-2 [3] = assay: as above
U2OS [4] = assay: as above
Vero E6 [5] = assay: as above
HepG2 [6] = assay: drug sensitivity score (DSS) for viability; higher = more toxic; extreme values may be limits of the assay
Calu-3 [7] = assay: as above
Caco-2 [8] = assay: as above
U2OS [9] = assay: as above
Vero E6 [10] = assay: as above
HepG2 [11] = assay: cell viability relative to DMSO; higher = less toxic
Calu-3 [12] = assay: as above
Caco-2 [13] = assay: as above
U2OS [14] = assay: as above
Vero E6 [15] = assay: as above

Compound	relative viability EC50 (HepG2 [1]) [µM]	relative viability EC50 (Calu-3 [2]) [µM]	relative viability EC50 (Caco-2 [3]) [µM]	relative viability EC50 (U2OS [4]) [µM]	relative viability EC50 (Vero E6 [5]) [µM]	drug sensitivity score (HepG2 [6])	drug sensitivity score (Calu-3 [7])	drug sensitivity score (Caco-2 [8])	drug sensitivity score (U2OS [9])	drug sensitivity score (Vero E6 [10])	cell viability (HepG2 [11]; 1 nM) [%]	cell viability (HepG2 [11]; 10 nM) [%]	cell viability (HepG2 [11]; 100 nM) [%]	cell viability (HepG2 [11]; 1000 nM) [%]	cell viability (HepG2 [11]; 10000 nM) [%]	cell viability (Calu-3 [12]; 1 nM) [%]	cell viability (Calu-3 [12]; 10 nM) [%]	cell viability (Calu-3 [12]; 100 nM) [%]	cell viability (Calu-3 [12]; 1000 nM) [%]	cell viability (Calu-3 [12]; 10000 nM) [%]	cell viability (Caco-2 [13]; 1 nM) [%]	cell viability (Caco-2 [13]; 10 nM) [%]	cell viability (Caco-2 [13]; 100 nM) [%]	cell viability (Caco-2 [13]; 1000 nM) [%]	cell viability (Caco-2 [13]; 10000 nM) [%]	cell viability (U2OS [14]; 1 nM) [%]	cell viability (U2OS [14]; 10 nM) [%]	cell viability (U2OS [14]; 100 nM) [%]	cell viability (U2OS [14]; 1000 nM) [%]	cell viability (U2OS [14]; 10000 nM) [%]	cell viability (Vero E6 [15]; 1 nM) [%]	cell viability (Vero E6 [15]; 10 nM) [%]	cell viability (Vero E6 [15]; 100 nM) [%]	cell viability (Vero E6 [15]; 1000 nM) [%]	cell viability (Vero E6 [15]; 10000 nM) [%]
C[C@]12C=CC(=O)C=C1CC[C@@H]1[C@@H]2[C@@H](O)C[C@@]2(C)[C@H]1CC[C@]2(O)C(=O)COP(=O)(O)O [prednisolone-sodium-phosphate]	> 10	> 10	> 10	> 10	> 10	0	0	0	0	0	100	100	104	99.2	100	97.4	92.7	101	82.5	106	99.6	89.5	98.4	92.8	91.7	95.1	105	97.9	90.8	97	102	103	108	101	89.6
CN1CCN(c2ccc(C(=O)Nc3n[nH]c4ccc(Cc5cc(F)cc(F)c5)cc34)c(NC3CCOCC3)c2)CC1 [entrectinib]	1.45	1.6	1.74	–	1.76	9.7	9	8.3	–	8.7	104	100	102	71.9	0.1	96.7	95.8	98.5	76.9	1.7	98.7	97	100	81.2	5.3	–	–	–	–	–	98.5	101	99.4	80.5	0.3
CC(=O)/N=c1/sc(S(N)(=O)=O)nn1C [methazolamide]	> 10	> 10	> 10	> 10	> 10	0	0	0	0	0	101	97.6	101	101	102	100	99.4	93.7	98.3	107	110	101	100	94	96.7	105	107	104	98.3	102	97	99	98.2	98.4	92.7
COc1cc(CN(CCN)C(=O)c2cccs2)ccc1OCc1ccccc1 [M8-B]	> 10	> 10	> 10	> 10	> 10	0	0	0.1	0	0	99.8	96.5	91.1	110	96.2	103	89.1	108	99.7	98.5	89.5	98.4	101	95.6	89.1	95.1	97.6	102	95.7	95.4	94.8	94.1	97.2	98	102
Cc1cccc(Nc2ccccc2C(=O)O)c1C [mefenamic-acid]	> 10	> 10	> 10	> 10	> 10	0	0	0	0	0	101	94.4	100	97.4	91.4	89.9	96.4	97.7	98.9	97.6	97.5	101	97.1	96.4	99.3	106	97	101	97.1	101	106	108	100	104	92
c1ccc2[nH]c(-c3cscn3)nc2c1 [tiabendazole]	> 10	> 10	–	–	> 10	0	0	–	–	0	116	104	102	97.2	106	105	102	103	97.8	110	–	–	–	–	–	–	–	–	–	–	93.2	96.8	102	96.3	106
Nc1nc2c(cnn2CCc2ccccc2)c2nc(-c3ccco3)nn12	0.354	> 10	–	> 10	> 10	14.9	0	4.1	0	0	97.7	101	90.9	25.5	12.7	88.2	100	95.7	113	90.7	96.7	104	93.5	78.3	67.5	98	99.8	92.7	98.6	100	107	99.8	98.2	99.6	96.1
Nc1nc2[nH]cc(CCc3ccc(C(=O)N[C@@H](CCC(=O)O)C(=O)O)cc3)c2c(=O)[nH]1 [pemetrexed]	0.558	> 10	> 10	–	0.768	11.8	3.7	1.2	1.4	6.5	85.4	100	97.3	39.4	20.1	108	91.9	86.6	83.3	76	105	86.8	87.4	96.5	79.3	103	95.5	107	100	68	85.2	99.1	91.6	70.9	45
NC(=O)NCCN1CCN(c2cccc(C(F)(F)F)c2)CC1 [fluprazine]	> 10	> 10	–	> 10	> 10	0	0	2	0	0	93.3	112	110	97.7	109	105	97.6	101	91.7	99.5	107	86.5	85.3	96.8	72.3	102	103	94.3	101	99.9	103	99.5	110	110	104
CC(=O)Oc1ccccc1C(=O)Oc1cccc(CO[N+](=O)[O-])c1 [NO-ASA]	> 10	> 10	–	> 10	> 10	1.7	0	–	0	0	95.4	104	100	88.9	79.9	96.3	101	98.9	103	107	–	–	–	–	–	98	98.5	99.4	101	93.1	102	108	101	89.7	105
O[C@H]1[C@H](O)[C@@H](O)[C@H](O)[C@@H](O)[C@H]1O [inositol]	> 10	> 10	–	> 10	> 10	0	0	1	0	0	123	102	105	93.3	98.8	112	94.6	104	96.1	100	95.8	111	91	105	69.8	106	104	96.7	103	101	110	101	98.1	99.4	99.5
COC(=O)C1=C(C)NC(C)=C(C(=O)OC)C1c1ccccc1[N+](=O)[O-] [nifedipine]	> 10	> 10	> 10	> 10	> 10	0	0	1.3	0	0	95.7	84.8	96.8	117	102	–	–	–	–	–	112	100	90.4	96.8	76.8	104	102	103	100	96.6	99.5	103	106	101	94.9
c1ccc(N2CCN(CCCOc3ccc4c(c3)OCO4)CC2)cc1 [BP-554]	> 10	> 10	> 10	–	> 10	0	0	0	–	0	107	93.1	95.3	102	103	101	107	99.5	103	110	107	102	101	105	98.7	–	–	–	–	–	94.5	94.6	94.7	96.2	96
Cc1c(N(C)CS(=O)(=O)O)c(=O)n(-c2ccccc2)n1C [metamizole]	> 10	> 10	> 10	–	> 10	0	0	0	–	0	99.9	109	100	91.6	102	106	90.6	102	95.7	91.1	98.5	107	101	104	104	–	–	–	–	–	97.5	97.1	95.6	102	101
Fc1ccc(C(OCCN2CCN(C/C=C/c3ccccc3)CC2)c2ccc(F)cc2)cc1	–	> 10	> 10	> 10	> 10	1.8	0	0.9	0	0.4	87.6	101	101	96.2	72.1	97.8	106	110	99.7	95.3	102	100	104	94.2	83.5	103	100	103	98.4	94.8	99.6	106	101	96	86.7
